Measurements taken from US7067488B2, “Modified GLP-1 peptides with increased biological potency” (TheraTechnologies Inc., priority 2002, dated 2006).

Columns and labels:
RINm5F cells = test: cAMP production in RINm5F cells; assay type: cell-based; settings: Mean ± SD; for IC50: 40 minutes incubation with peptide, 0.5 mM IBMX
Procedure: RINm5F cells (ATCC # CRL-2058) were grown to confluence and used 4 days following confluency. Aqueous stock solutions (1 mM) of GLP-1, 5, 8, 16, and 17, also containing 0.1% BSA, were made prior to the assay. Cells were pre-incubated with 100 μl RPMI containing 0.5 mM IBMX for 10 minutes at 37° C. Diluted (10^−5 to 10^−11 M) peptides (100 μl) were added to the wells and incubated for 40 minutes. At the end of the incubation period, the supernatant was collected and assayed for cAMP using a radioimmunoassay kit (Diagnostic Product Corporation). Maximal responses (pmol/mg protein) and IC50 (nM) values were evaluated from the dose-response curves and data presented in Table 3.

CD-1 normal female mice = settings: 1 μg dose ip, CD-1 mice
Procedure: An OGTT was done as described above. Plasma insulin levels were determined using a commercial RIA kit (Linco Research).

db/db mice = test: OGTT in diabetic mice (db/db); assay type: in vivo; settings: 5 μG/mouse ip
Procedure: An OGTT was conducted as described in Example 3. Peptides were injected intra-parentally (ip) at 5 μG/mouse doses.

Sprague-Dawley rats = test: Intraperitoneal glucose tolerance test (IPGTT), plasma insulin levels in Sprague-Dawley rats; assay type: in vivo; settings: 10 μg/rat iv
Procedure: Sprague-Dawley rats (300–350 g) were fasted overnight, and injected with 1 g/kg glucose (2 ml) (over 15–20 seconds), and blood glucose levels were determined at different times during a period of 3 hours using a portable glucometer. The drugs (10 μg/rat) were dissolved in saline and injected into the femoral vein 5 minutes before the injection of glucose. Thus 0 time represents blood glucose and insulin levels after drug administration but before glucose injection. Plasma insulin levels were determined using a radioimmunoassay kit (Linco). […] The insulinogenic index was calculated as delta insulin (pM)/delta glucose (mM).

[1] = cited from earlier work

Substance: [H7] Salicylic acid GLP-1 (7–37) CONH2 [Compound 17]
- IC50 (RINm5F cells): 13.2 ± 5.2 nM
- Maximal Response (RINm5F cells): 21.9 ± 2.1 pmol/mg protein

Substance: [H7] 3-methoxyphenyl acetic acid GLP-1 (7–37) COOH [Compound 7]
- effect on glucose disposal (CD-1 normal female mice): no effect on glucose disposal
- accelerating glucose disposal compared to GLP-1 (db/db mice): performed better than GLP-1

Substance: [H7] Salicylic acid GLP-1 (7–37) COOH [Compound 8]
- IC50 (RINm5F cells): 13.9 ± 15.6 nM
- Maximal Response (RINm5F cells): 25.1 ± 11.9 pmol/mg protein
- accelerating glucose disposal compared to GLP-1 (db/db mice): performed better than GLP-1
- order of efficacy (Sprague-Dawley rats): 15=5>7=GLP-1>8=vehicle

Substance: [H7] 3-aminophenyl acetic acid GLP-1 (7–36) CONH2 [Compound 16]
- IC50 (RINm5F cells): 10.2 ± 7.7 nM
- Maximal Response (RINm5F cells): 13.8 ± 3.6 pmol/mg protein

Substance: [H7] (1S, 2S) 2-ethylcyclopropyl acetic acid GLP-1 (7–37) COOH [Compound 15]
- accelerating glucose disposal compared to GLP-1 (db/db mice): performed better than GLP-1

Substance: [H7] 3-aminophenyl acetic acid GLP-1 (7–37) COOH [Compound 5]
- IC50 (RINm5F cells): 8.7 ± 9.8 nM
- Maximal Response (RINm5F cells): 20.0 ± 6.9 pmol/mg protein

Substance: GLP-1 (7–37) OH [reference compound]
- IC50 (RINm5F cells): 6.4 ± 3.8 nM
- Maximal Response (RINm5F cells): 17.6 ± 5.1 pmol/mg protein
- half-life of circulating GLP-1 ([1]; Kreymann et al., 1987): about 4 minutes
- metabolic clearance rate ([1]; active GLP-1 (Holst, 1994)): 12 to 13 min
- plasma half-life ([1]; active GLP-1 (Holst, 1994)): < 5 min
- order of efficacy (Sprague-Dawley rats): 15=5>7=GLP-1>8=vehicle
